Measured values taken from ChEMBL document CHEMBL2407028, “Discovery of novel oxazolidinedione derivatives as potent and selective mineralocorticoid receptor antagonists” (Bioorg Med Chem Lett, 2013).

Molecular target: T1, Progesterone receptor (Homo sapiens, UniProt P06401)
T1 sequence (P06401 whole entry): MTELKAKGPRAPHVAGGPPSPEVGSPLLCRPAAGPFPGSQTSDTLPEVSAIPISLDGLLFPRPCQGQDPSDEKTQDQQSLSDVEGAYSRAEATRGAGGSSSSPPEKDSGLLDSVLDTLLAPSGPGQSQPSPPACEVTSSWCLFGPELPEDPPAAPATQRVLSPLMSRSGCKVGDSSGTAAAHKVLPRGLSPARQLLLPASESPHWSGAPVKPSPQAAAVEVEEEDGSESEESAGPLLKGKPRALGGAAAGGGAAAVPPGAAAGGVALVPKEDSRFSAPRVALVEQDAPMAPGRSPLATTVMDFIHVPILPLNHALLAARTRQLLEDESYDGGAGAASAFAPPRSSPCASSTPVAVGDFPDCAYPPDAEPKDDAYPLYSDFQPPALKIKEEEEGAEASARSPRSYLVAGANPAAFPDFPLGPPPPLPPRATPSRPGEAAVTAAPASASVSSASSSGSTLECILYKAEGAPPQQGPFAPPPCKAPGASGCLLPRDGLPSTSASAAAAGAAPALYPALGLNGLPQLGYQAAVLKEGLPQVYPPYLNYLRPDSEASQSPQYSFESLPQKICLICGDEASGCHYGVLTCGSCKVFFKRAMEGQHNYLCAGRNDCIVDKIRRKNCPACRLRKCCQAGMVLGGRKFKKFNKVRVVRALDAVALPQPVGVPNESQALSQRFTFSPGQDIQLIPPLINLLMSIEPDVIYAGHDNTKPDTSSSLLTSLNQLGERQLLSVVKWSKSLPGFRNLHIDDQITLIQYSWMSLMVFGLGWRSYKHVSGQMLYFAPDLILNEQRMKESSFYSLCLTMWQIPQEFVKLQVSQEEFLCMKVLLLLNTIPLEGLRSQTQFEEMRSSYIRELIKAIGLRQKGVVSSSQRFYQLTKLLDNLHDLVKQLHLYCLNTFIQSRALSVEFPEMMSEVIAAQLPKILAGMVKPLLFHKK
Assay: Antagonist activity at progesterone receptor beta (unknown origin) by NH Pro assay

IC50 [µM] | Compound
3.6 | C[C@H](c1ccc(F)cc1)N1C(=O)O[C@](Cc2ccc(F)cc2)(C(=O)NCc2ccc(Cl)c(Cl)c2)C1=O
8.1 | COc1cc(CNC(=O)[C@@]2(Cc3ccccc3)OC(=O)N([C@@H]3CCc4ccccc43)C2=O)cc(OC)c1
